Tests used:
Experiment in all cases: β-arrestin based GPCR screen (PathHunter / GPCRmax), agonist mode
Type in all cases: cell-based
Design in all cases: host or cells: PathHunter cell lines
168 GPCRs [1] = molecular target: 168 GPCRs (Homo sapiens, UniProt P51684); settings: CCR6, Agonist
Protocol: (§1) For agonist determination, cells were incubated with sample to induce response. […] Vehicle concentration was 1%.

168 GPCRs [2] = molecular target: 168 GPCRs (Homo sapiens, UniProt P46092); settings: CCR10, Agonist
Chain of 168 GPCRs (Homo sapiens, UniProt P46092) (P46092 whole entry): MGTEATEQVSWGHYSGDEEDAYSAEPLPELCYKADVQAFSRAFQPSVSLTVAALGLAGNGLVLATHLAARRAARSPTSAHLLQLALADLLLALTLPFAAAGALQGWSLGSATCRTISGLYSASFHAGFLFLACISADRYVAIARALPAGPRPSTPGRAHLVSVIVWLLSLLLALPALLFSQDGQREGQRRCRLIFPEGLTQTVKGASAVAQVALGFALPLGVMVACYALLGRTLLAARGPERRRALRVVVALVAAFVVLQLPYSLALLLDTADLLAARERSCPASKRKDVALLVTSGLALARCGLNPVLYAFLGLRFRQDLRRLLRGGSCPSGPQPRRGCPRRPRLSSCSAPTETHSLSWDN
Protocol: as §1

168 GPCRs [3] = molecular target: 168 GPCRs (Homo sapiens, UniProt Q96P65)
Chain of 168 GPCRs (Homo sapiens, UniProt Q96P65) (Q96P65 whole entry): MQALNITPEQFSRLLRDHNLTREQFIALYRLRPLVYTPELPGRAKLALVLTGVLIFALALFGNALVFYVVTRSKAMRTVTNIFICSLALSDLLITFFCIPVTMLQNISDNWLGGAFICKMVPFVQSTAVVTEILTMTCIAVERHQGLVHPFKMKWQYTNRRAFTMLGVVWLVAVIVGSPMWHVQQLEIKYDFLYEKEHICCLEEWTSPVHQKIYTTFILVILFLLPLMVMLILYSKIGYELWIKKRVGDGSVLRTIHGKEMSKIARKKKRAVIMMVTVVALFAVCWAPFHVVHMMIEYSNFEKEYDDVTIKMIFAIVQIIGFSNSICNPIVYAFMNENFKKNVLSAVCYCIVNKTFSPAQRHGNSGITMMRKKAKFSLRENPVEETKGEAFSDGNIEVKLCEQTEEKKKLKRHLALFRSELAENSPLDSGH
Protocol: as §1

168 GPCRs [4] = molecular target: 168 GPCRs (Homo sapiens, UniProt O95136)
Chain of 168 GPCRs (Homo sapiens, UniProt O95136) (O95136 whole entry): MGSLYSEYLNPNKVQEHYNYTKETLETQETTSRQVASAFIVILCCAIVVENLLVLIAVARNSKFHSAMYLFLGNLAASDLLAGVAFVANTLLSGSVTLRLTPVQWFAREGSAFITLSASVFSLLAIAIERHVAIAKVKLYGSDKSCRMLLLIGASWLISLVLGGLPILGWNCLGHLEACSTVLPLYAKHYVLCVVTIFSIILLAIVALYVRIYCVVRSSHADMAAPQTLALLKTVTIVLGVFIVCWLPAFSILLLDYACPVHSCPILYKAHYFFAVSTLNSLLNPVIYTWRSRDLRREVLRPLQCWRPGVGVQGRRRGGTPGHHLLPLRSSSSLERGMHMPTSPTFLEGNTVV
Protocol: as §1

168 GPCRs [5] = molecular target: 168 GPCRs (Homo sapiens, UniProt P50391)
Chain of 168 GPCRs (Homo sapiens, UniProt P50391) (P50391 whole entry): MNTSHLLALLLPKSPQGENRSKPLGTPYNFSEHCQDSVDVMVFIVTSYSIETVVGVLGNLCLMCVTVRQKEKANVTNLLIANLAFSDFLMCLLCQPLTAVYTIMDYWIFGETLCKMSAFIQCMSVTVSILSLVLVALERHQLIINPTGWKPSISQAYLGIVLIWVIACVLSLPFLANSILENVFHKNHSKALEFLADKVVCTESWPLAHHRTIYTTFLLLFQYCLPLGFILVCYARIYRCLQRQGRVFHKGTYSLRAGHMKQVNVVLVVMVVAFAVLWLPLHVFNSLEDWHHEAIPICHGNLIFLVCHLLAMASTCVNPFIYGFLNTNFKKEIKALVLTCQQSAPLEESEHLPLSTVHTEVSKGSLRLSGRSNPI
Protocol: as §1

168 GPCRs [6] = molecular target: T1, 168 GPCRs (Homo sapiens, UniProt Q9Y5Y4)
T1 sequence (Q9Y5Y4 1-395): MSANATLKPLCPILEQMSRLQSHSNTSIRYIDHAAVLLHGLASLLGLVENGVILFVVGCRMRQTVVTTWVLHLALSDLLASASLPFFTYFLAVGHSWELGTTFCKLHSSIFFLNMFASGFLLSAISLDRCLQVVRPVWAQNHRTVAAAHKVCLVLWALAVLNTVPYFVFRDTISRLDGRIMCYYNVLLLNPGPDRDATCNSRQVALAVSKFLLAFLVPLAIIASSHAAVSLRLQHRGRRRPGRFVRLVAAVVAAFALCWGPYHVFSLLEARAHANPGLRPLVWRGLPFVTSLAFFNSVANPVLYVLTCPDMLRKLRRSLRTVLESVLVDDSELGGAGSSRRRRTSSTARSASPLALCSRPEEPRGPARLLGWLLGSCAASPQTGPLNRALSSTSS
Protocol: as §1

168 GPCRs [7] = molecular target: 168 GPCRs (Homo sapiens, UniProt P49682)
Protocol: as §1

168 GPCRs [8] = molecular target: 168 GPCRs (Homo sapiens, UniProt P41231)
Protocol: as §1

168 GPCRs [9] = molecular target: 168 GPCRs (Homo sapiens, UniProt P25025)
Protocol: as §1

168 GPCRs [10] = molecular target: 168 GPCRs (Homo sapiens, UniProt P51681); settings: CCR5, CCR5, Agonist
Chain of 168 GPCRs (Homo sapiens, UniProt P51681) (P51681 whole entry): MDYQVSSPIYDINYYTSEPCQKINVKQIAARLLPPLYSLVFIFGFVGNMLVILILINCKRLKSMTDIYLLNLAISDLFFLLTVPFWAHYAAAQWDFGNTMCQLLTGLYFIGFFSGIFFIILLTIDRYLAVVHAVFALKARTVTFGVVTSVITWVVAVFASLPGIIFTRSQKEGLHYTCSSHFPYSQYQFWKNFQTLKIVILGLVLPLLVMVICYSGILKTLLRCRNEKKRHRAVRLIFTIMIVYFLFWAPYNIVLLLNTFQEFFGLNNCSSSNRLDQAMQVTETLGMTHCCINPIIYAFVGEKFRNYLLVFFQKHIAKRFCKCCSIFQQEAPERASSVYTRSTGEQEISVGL
Protocol: as §1

168 GPCRs [11] = molecular target: 168 GPCRs (Homo sapiens, UniProt P21452)
Protocol: as §1

168 GPCRs [12] = molecular target: 168 GPCRs (Homo sapiens, UniProt P47872); settings: SCTR
Protocol: as §1

168 GPCRs [13] = molecular target: 168 GPCRs (Homo sapiens, UniProt P32245); settings: MC4R
Protocol: as §1

168 GPCRs [14] = molecular target: 168 GPCRs (Homo sapiens, UniProt P51686); settings: CCR9, Agonist
Chain of 168 GPCRs (Homo sapiens, UniProt P51686) (P51686 whole entry): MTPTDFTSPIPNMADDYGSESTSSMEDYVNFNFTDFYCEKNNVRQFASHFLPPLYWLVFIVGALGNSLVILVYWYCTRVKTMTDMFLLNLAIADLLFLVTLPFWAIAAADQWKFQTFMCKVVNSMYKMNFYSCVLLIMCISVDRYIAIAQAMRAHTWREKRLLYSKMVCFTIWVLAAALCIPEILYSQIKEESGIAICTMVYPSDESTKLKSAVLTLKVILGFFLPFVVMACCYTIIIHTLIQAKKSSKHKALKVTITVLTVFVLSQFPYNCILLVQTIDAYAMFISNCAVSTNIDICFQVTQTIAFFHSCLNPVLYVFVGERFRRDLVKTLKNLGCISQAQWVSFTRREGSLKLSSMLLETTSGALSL
Protocol: as §1

168 GPCRs [15] = molecular target: 168 GPCRs (Homo sapiens, UniProt P25090)
Chain of 168 GPCRs (Homo sapiens, UniProt P25090) (P25090 whole entry): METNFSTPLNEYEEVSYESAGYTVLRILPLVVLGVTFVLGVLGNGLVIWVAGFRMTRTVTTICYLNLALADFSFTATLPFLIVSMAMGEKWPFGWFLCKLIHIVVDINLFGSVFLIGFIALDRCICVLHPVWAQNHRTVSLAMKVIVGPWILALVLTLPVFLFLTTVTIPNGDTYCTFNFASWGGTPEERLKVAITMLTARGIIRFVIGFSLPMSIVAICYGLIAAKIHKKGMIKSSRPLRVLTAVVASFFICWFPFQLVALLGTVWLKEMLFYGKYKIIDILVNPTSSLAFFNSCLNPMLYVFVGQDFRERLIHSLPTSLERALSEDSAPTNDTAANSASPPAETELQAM
Protocol: as §1

168 GPCRs [16] = molecular target: 168 GPCRs (Homo sapiens, UniProt O14842)
Chain of 168 GPCRs (Homo sapiens, UniProt O14842) (O14842 whole entry): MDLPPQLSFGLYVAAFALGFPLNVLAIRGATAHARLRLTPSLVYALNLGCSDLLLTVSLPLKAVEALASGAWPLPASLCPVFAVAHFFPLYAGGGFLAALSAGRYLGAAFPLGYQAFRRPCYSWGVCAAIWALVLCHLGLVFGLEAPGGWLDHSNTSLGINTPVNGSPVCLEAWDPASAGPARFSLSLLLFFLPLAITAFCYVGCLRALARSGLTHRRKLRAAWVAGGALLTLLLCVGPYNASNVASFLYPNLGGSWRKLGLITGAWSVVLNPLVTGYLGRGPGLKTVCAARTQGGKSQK
Protocol: as §1

168 GPCRs [17] = molecular target: 168 GPCRs (Homo sapiens, UniProt P25106)
Chain of 168 GPCRs (Homo sapiens, UniProt P25106) (P25106 whole entry): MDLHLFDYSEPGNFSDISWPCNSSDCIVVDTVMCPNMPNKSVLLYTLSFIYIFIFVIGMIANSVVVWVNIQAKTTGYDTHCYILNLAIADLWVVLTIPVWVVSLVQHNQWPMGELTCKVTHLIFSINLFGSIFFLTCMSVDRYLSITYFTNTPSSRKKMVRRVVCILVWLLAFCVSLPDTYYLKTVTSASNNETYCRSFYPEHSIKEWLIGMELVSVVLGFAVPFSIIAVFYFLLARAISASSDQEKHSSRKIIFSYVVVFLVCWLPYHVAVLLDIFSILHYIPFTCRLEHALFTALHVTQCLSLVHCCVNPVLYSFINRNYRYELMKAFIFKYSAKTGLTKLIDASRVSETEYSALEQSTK
Protocol: as §1

168 GPCRs [18] = molecular target: 168 GPCRs (Homo sapiens, UniProt P18089); settings: ADRA2B, Agonist
Chain of 168 GPCRs (Homo sapiens, UniProt P18089) (P18089 whole entry): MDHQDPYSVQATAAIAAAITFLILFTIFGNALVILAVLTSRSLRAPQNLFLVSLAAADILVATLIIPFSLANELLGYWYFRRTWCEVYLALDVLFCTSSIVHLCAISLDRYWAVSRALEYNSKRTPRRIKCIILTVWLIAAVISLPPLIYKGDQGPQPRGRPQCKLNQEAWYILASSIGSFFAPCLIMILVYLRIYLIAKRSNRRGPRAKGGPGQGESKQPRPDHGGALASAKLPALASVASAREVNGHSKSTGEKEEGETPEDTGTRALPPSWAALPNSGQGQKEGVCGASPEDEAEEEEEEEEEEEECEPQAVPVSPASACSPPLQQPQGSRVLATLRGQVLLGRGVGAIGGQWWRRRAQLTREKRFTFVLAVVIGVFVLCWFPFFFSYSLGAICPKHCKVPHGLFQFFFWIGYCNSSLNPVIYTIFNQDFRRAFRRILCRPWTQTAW
Protocol: as §1

168 GPCRs [19] = molecular target: 168 GPCRs (Homo sapiens, UniProt P41586); settings: ADCYAP1R1, Agonist
Chain of 168 GPCRs (Homo sapiens, UniProt P41586) (P41586 21-468): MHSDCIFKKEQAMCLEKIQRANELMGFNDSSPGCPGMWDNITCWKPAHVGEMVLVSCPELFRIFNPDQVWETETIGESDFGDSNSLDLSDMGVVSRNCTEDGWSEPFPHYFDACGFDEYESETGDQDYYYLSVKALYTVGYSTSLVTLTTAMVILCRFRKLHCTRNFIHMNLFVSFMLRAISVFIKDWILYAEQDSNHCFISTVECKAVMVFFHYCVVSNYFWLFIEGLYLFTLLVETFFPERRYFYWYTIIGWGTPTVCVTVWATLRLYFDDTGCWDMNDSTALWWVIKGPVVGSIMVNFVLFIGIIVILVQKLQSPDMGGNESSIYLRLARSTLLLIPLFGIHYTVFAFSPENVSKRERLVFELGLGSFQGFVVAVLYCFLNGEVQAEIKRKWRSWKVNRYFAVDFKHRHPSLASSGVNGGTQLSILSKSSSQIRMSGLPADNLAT
Protocol: as §1

168 GPCRs [20] = molecular target: 168 GPCRs (Homo sapiens, UniProt Q8TCW9)
Chain of 168 GPCRs (Homo sapiens, UniProt Q8TCW9) (Q8TCW9 whole entry): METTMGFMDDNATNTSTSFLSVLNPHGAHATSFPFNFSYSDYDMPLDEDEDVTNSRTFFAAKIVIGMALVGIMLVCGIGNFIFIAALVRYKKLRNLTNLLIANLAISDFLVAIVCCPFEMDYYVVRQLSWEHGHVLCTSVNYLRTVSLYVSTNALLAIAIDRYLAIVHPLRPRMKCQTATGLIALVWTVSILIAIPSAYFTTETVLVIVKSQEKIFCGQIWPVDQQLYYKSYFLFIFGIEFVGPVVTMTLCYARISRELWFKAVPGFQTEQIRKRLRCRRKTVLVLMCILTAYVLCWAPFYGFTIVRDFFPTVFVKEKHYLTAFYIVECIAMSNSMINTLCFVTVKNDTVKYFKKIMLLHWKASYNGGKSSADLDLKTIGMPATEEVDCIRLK
Protocol: as §1

Chain of 168 GPCRs (Homo sapiens, UniProt P51684) (P51684 whole entry): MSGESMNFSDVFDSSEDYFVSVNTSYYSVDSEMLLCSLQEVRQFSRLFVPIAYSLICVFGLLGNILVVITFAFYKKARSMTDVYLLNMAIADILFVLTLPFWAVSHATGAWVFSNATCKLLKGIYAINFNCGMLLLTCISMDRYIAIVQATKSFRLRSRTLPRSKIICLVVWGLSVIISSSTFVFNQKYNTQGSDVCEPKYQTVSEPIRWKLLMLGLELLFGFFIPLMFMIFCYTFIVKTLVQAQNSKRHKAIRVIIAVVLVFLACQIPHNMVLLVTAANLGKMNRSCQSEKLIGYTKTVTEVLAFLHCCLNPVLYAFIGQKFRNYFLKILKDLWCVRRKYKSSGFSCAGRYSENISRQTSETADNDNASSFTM

## CNC(C)C(=O)c1ccc2c(c1)OCO2 (stereo not shown) [methylone, 3,4-methylenedioxy-N-methylcathinone]
168 GPCRs [1]; 1 uM
  activity at 1 µM: -2.9%
168 GPCRs [1]; 10 uM
  activity at 10 µM: -3.3%
168 GPCRs [2]; 1 uM
  activity at 1 µM: -2%
168 GPCRs [2]; 10 uM
  activity at 10 µM: -1.8%
168 GPCRs [3]; GPR103, Agonist mode, 10 uM
  activity at 10 µM: 3.13%
168 GPCRs [3]; GPR103, Agonist, 1 uM
  activity at 1 µM: 0.8%
168 GPCRs [4]; EDG5, Agonist mode, 10 uM
  activity at 10 µM: 3.7%
168 GPCRs [4]; EDG5, Agonist, 1 uM
  activity at 1 µM: -4.7%
168 GPCRs [5]; PPYR1, Agonist mode, 10 uM
  activity at 10 µM: -1.2%
168 GPCRs [5]; PPYR1, Agonist, 1 uM
  activity at 1 µM: -1.7%
168 GPCRs [6]; CRTH2, Agonist mode, 10 uM
  activity at 10 µM: -5%
168 GPCRs [6]; CRTH2, Agonist, 1 uM
  activity at 1 µM: -5.7%
168 GPCRs [7]; CXCR3, Agonist mode, 10 uM
  activity at 10 µM: 1.6%
168 GPCRs [7]; CXCR3, Agonist, 1 uM
  activity at 1 µM: -0.2%
168 GPCRs [8]; P2RY2, Agonist mode, 10 uM
  activity at 10 µM: -2.7%
168 GPCRs [8]; P2RY2, Agonist, 1 uM
  activity at 1 µM: -2.1%
168 GPCRs [9]; CXCR2, Agonist mode, 10 uM
  activity at 10 µM: 2.6%
168 GPCRs [9]; CXCR2, Agonist, 1 uM
  activity at 1 µM: -0.2%
168 GPCRs [10]; 1 uM
  activity at 1 µM: -0.1%
168 GPCRs [10]; 10 uM
  activity at 10 µM: 0.3%
168 GPCRs [11]; TACR2, Agonist mode, 10 uM
  activity at 10 µM: -3.3%
168 GPCRs [11]; TACR2, Agonist, 1 uM
  activity at 1 µM: -1.9%
168 GPCRs [12]; Agonist mode, 10 uM
  activity at 10 µM: -1.4%
168 GPCRs [12]; Agonist, 1 uM
  activity at 1 µM: -2.6%
168 GPCRs [13]; Agonist mode, 10 uM
  activity at 10 µM: -1.1%
168 GPCRs [13]; Agonist, 1 uM
  activity at 1 µM: -1.4%
168 GPCRs [14]; 1 uM
  activity at 1 µM: -0.5%
168 GPCRs [14]; 10 uM
  activity at 10 µM: 0.2%
168 GPCRs [15]; FPRL1, Agonist mode, 10 uM
  activity at 10 µM: 0.1%
168 GPCRs [15]; FPRL1, Agonist, 1 uM
  activity at 1 µM: -0.5%
168 GPCRs [16]; FFAR1, Agonist mode, 10 uM
  activity at 10 µM: 4.5%
168 GPCRs [16]; FFAR1, Agonist, 1 uM
  activity at 1 µM: 1.7%
168 GPCRs [17]; CXCR7, Agonist mode, 10 uM
  activity at 10 µM: -0.8%
168 GPCRs [17]; CXCR7, Agonist, 1 uM
  activity at 1 µM: -1.3%
168 GPCRs [18]; 1 uM
  activity at 1 µM: -1%
168 GPCRs [18]; 10 uM
  activity at 10 µM: 1.3%
168 GPCRs [19]; 1 uM
  activity at 1 µM: -4%
168 GPCRs [19]; 10 uM
  activity at 10 µM: -3%
168 GPCRs [20]; PROKR1, Agonist mode, 10 uM
  activity at 10 µM: -2.8%
168 GPCRs [20]; PROKR1, Agonist, 1 uM
  activity at 1 µM: -1.3%
